In publication PMC4792470, “A Novel Manno-Oligosaccharide Binding Protein Identified in Alkaliphilic Bacillus sp. N16-5 Is Involved in Mannan Utilization” (PLoS ONE, 2016):

Target: T1, ManH (Bacillus sp. N16-5, UniProt A0A140EH86)
T1 construct: without N-terminal signal peptide; pET-28a NcoI/BamHI, native stop codon in primer; E. coli BL21(DE3); anion exchange; primers give N-terminus (M)DENTGGN and C-terminus SLEGIE; full-length starts MNKKLWL by primer
T1 sequence (A0A140EH86 17-435): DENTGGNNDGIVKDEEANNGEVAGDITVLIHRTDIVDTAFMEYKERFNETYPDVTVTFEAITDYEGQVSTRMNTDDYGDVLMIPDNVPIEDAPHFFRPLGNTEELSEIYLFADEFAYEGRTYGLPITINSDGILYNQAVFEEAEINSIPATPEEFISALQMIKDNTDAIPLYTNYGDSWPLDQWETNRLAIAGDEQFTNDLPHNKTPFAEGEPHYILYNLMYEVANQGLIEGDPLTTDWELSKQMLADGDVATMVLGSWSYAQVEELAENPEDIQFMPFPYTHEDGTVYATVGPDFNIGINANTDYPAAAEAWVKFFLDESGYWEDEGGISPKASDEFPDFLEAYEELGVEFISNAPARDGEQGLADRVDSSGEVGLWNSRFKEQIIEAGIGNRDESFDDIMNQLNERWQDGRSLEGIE
Assay: isothermal titration calorimetry
Type: binding
Details: 20 mM Tris-HCl pH 8.0, 200 mM NaCl, 30 °C; independent-site model
Source text: isothermal titration calorimetry on ManH

Row | Molecule | Kd (1/Ka, μM)
1 | OC[C@H]1O[C@@H](O[C@H]2[C@H](O)[C@H](O)[C@H](O[C@H]3[C@H](O)[C@H](O)[C@H](O[C@H]4[C@H](O)[C@H](O)[C@H](O[C@H]5[C@H](O)[C@H](O)C(O)O[C@@H]5CO)O[C@@H]4CO)O[C@@H]3CO)O[C@@H]2CO)[C@@H](O)[C@@H](O)[C@@H]1O (stereo partly shown) [mannopentose] | 0.8 µM
2 | OC[C@H]1O[C@@H](O[C@H]2[C@H](O)[C@H](O)[C@H](O[C@H]3[C@H](O)[C@H](O)[C@H](O[C@H]4[C@H](O)[C@H](O)C(O)O[C@@H]4CO)O[C@@H]3CO)O[C@@H]2CO)[C@@H](O)[C@@H](O)[C@@H]1O (stereo partly shown) [mannotetraose] | 2.2 µM
3 | OC[C@H]1O[C@@H](O[C@H]2[C@H](O)[C@H](O)[C@H](O[C@H]3[C@H](O)[C@H](O)C(O)O[C@@H]3CO)O[C@@H]2CO)[C@@H](O)[C@@H](O)[C@@H]1O (stereo partly shown) [mannotriose] | 3.8 µM
4 | galactosyl-mannotriose | 19.4 µM
